# From US11266643B2, “Triaryl compounds for treatment of PD-L1 diseases” (CHEMOCENTRYX, INC., priority 2019, dated 2022)
# Biological target: human PD-L1 (Homo sapiens (Human), UniProt Q9NZQ7)
# Assay: Enzyme-Linked Immunosorbent Assay (ELISA), PD-1/PD-L1 binding
# Conditions: plate-coated human PD-L1, biotinylated Human PD-1, absorbance at 450 nm
# Outline: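 Competitive ELISA: human PD-1 […] (0.31 μg/mL) and serially diluted compounds (1:5) incubated 1 h at 37° C on wells coated with […] human PD-L1. Signal via streptavidin-HRP/TMB, stopped with 2 N H2SO4, measured as A450.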
# Chain of human PD-L1 (Q9NZQ7 19-239): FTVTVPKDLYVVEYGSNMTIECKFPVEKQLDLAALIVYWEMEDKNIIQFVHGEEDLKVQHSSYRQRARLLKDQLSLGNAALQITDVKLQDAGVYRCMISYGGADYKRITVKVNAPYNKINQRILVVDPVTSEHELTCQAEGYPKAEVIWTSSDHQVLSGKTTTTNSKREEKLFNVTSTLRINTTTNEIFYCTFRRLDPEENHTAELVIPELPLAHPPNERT
row,IC50 [µM],Structure (SMILES)
1,< 0.01,COc1cc(-c2cccc(-c3cccc(NC(=O)c4cn(C)c(=O)n(C)c4=O)c3C)c2Cl)cc(F)c1CN1CCC(C)(O)CC1 [Example 2.018]
2,< 0.01,COc1cc(-c2cccc(-c3cccc(NC(=O)c4cn(C)c(=O)n(C)c4=O)c3C)c2Cl)cc(F)c1CN1CCC(C(=O)O)CC1 [Example 2.019]
3,< 0.01,COc1cc(-c2cccc(-c3cccc(NC(=O)c4cn(C)c(=O)n(C)c4=O)c3C)c2Cl)cc(F)c1CN1CCC(O)CC1 [Example 2.020]
4,< 0.01,COc1cc(-c2cccc(-c3cccc(NC(=O)c4cn(C)c(=O)n(C)c4=O)c3C)c2Cl)cc(F)c1CN1CC[C@@H](C(=O)O)C1 [Example 2.021]
5,< 0.01,COc1cc(-c2cccc(-c3cccc(NC(=O)c4c[nH]c(=O)n(C)c4=O)c3Cl)c2Cl)cc(F)c1CN[C@H]1CCOC[C@H]1OC [Example 2.022]
6,< 0.01,COc1cc(-c2cccc(-c3cccc(NC(=O)c4c[nH]c(=O)n(C)c4=O)c3C)c2Cl)cc(F)c1CN[C@H]1CCOC[C@H]1OC [Example 2.023]
7,< 0.01,COc1cc(-c2cccc(-c3cccc(NC(=O)c4cn(C)c(=O)n(C)c4=O)c3C)c2Cl)cc(F)c1CN[C@H]1CCOC[C@H]1OC [Example 2.024]
8,< 0.01,COc1cc(-c2cccc(-c3cccc(NC(=O)c4cn(C)c(=O)n(C)c4=O)c3Cl)c2Cl)cc(F)c1CN[C@H]1CCOC[C@H]1OC [Example 2.025]
9,< 0.01,COc1cc(-c2cccc(-c3cccc(NC(=O)c4c[nH]c(=O)n(C)c4=O)c3Cl)c2Cl)cc(F)c1CNCC1(C(N)=O)CC1 [Example 2.026]
10,< 0.01,COc1cc(-c2cccc(-c3cccc(NC(=O)c4c[nH]c(=O)n(C)c4=O)c3Cl)c2Cl)cc(F)c1CN[C@H]1CCC(=O)NC1 [Example 2.027]
11,< 0.01,COc1cc(-c2cccc(-c3cccc(NC(=O)c4c[nH]c(=O)n(C)c4=O)c3Cl)c2Cl)cc(F)c1CN[C@H]1CCOC[C@H]1O [Example 2.029]
12,< 0.01,COc1cc(-c2cccc(-c3cccc(NC(=O)c4c[nH]c(=O)n(C)c4=O)c3Cl)c2Cl)cc(F)c1CN[C@@H]1CCOC[C@@H]1O [Example 2.030]
13,< 0.01,COc1cc(-c2cccc(-c3cccc(NC(=O)c4c[nH]c(=O)n(C)c4=O)c3C)c2Cl)cc(F)c1CNCC1(C(N)=O)CC1 [Example 2.031]
14,< 0.01,COc1cc(-c2cccc(-c3cccc(NC(=O)c4c[nH]c(=O)n(C)c4=O)c3C)c2Cl)cc(F)c1CN[C@H]1CCC(=O)NC1 [Example 2.032]
15,< 0.01,COc1cc(-c2cccc(-c3cccc(NC(=O)c4c[nH]c(=O)n(C)c4=O)c3C)c2Cl)cc(F)c1CN[C@@H]1CNC(=O)C1 [Example 2.033]
16,< 0.01,COc1cc(-c2cccc(-c3cccc(NC(=O)c4c[nH]c(=O)n(C)c4=O)c3C)c2Cl)cc(F)c1CN[C@H]1CCOC[C@H]1O [Example 2.034]
17,< 0.01,COc1cc(-c2cccc(-c3cccc(NC(=O)c4c[nH]c(=O)n(C)c4=O)c3C)c2Cl)cc(F)c1CN[C@@H]1CCOC[C@@H]1O [Example 2.035]
18,< 0.01,CCOc1cc(-c2cccc(-c3cccc(NC(=O)c4cn(C)c(=O)n(C)c4=O)c3Cl)c2Cl)cc(F)c1CN[C@H]1CCC(=O)NC1 [Example 2.036]
19,< 0.01,CCOc1cc(-c2cccc(-c3cccc(NC(=O)c4cn(C)c(=O)n(C)c4=O)c3Cl)c2Cl)cc(F)c1CN[C@@H]1CCOC[C@@H]1O [Example 2.037]

row,IC50 [µM],Structure (SMILES)
1,0.01 to 1,CCOc1cc(-c2cccc(-c3cccc(NC(=O)c4cn(C)c(=O)n(C)c4=O)c3C)c2Cl)cc(F)c1CN[C@H]1CCC(=O)NC1 [Example 2.038]
2,< 0.01,CCOc1cc(-c2cccc(-c3cccc(NC(=O)c4cn(C)c(=O)n(C)c4=O)c3C)c2Cl)cc(F)c1CN[C@@H]1CCOC[C@@H]1O [Example 2.039]
3,< 0.01,COc1cc(-c2cccc(-c3cccc(NC(=O)c4cncn(C)c4=O)c3C)c2Cl)cc(F)c1CN[C@H]1CCC(=O)NC1 [Example 2.041]
4,< 0.01,COc1cc(-c2cccc(-c3cccc(NC(=O)c4cncn(C)c4=O)c3C)c2Cl)cc(F)c1CN[C@@H]1CCOC[C@@H]1O [Example 2.042]
5,< 0.01,COc1cc(-c2cccc(-c3cccc(NC(=O)c4cn(C)c(=O)n(C)c4=O)c3C)c2Cl)cc(F)c1CN(C)[C@@H]1CCOC1 [Example 2.043]
6,< 0.01,COc1cc(-c2cccc(-c3cccc(NC(=O)c4cn(C)c(=O)n(C)c4=O)c3C)c2Cl)cc(F)c1CNCC(C)(C)O [Example 2.045]
7,< 0.01,COc1cc(-c2cccc(-c3cccc(NC(=O)c4cn(C)c(=O)n(C)c4=O)c3C)c2Cl)cc(F)c1CN1CC(C(=O)O)C1 [Example 2.046]
8,< 0.01,COc1cc(-c2cccc(-c3cccc(NC(=O)c4cn(C)c(=O)n(C)c4=O)c3C)c2Cl)cc(F)c1CN1CCCC[C@H]1C(=O)O [Example 2.047]
9,< 0.01,CCOc1cc(-c2cccc(-c3cccc(NC(=O)c4cn(C)c(=O)n(C)c4=O)c3C)c2Cl)ccc1CN[C@@H]1CCOC[C@@H]1O [Example 2.048]
10,< 0.01,COc1cc(-c2cccc(-c3cccc(NC(=O)c4cn(C)c(=O)n(C)c4=O)c3C)c2Cl)cnc1CN[C@@H]1CCOC[C@@H]1O [Example 2.049]
11,< 0.01,COc1cc(-c2cccc(-c3cccc(NC(=O)c4cn(C)c(=O)n(C)c4=O)c3C)c2Cl)cc(F)c1CNC1(C)CCOCC1 [Example 2.050]
12,< 0.01,COc1cc(-c2cccc(-c3cccc(NC(=O)c4cn(C)c(=O)n(C)c4=O)c3C)c2Cl)cc(F)c1CN[C@@H]1CCC[C@@H]1O [Example 2.051]
13,< 0.01,COc1cc(-c2cccc(-c3cccc(NC(=O)c4cn(C)c(=O)n(C)c4=O)c3C)c2Cl)cc(F)c1CN[C@@H]1CCC[C@H]1O [Example 2.052]
14,< 0.01,COc1cc(-c2cccc(-c3cccc(NC(=O)c4cn(C)c(=O)n(C)c4=O)c3C)c2Cl)cc(F)c1CN[C@H]1CCC[C@H]1O [Example 2.053]
15,< 0.01,COc1cc(-c2cccc(-c3cccc(NC(=O)c4cn(C)c(=O)n(C)c4=O)c3C)c2Cl)ccc1CN[C@@H]1CCOC[C@@H]1O [Example 2.054]
16,0.01 to 1,COc1cc(-c2cccc(-c3cccc(NC(=O)c4cn(C)c(=O)n(C)c4=O)c3Cl)c2Cl)cc(F)c1CN(C)[C@H]1CNC(=O)C1 [Example 2.055]
17,< 0.01,COc1cc(-c2cccc(-c3cccc(NC(=O)c4cn(C)c(=O)n(C)c4=O)c3C)c2Cl)cc(F)c1CNCC1(O)CC1 [Example 2.056]
18,< 0.01,COc1cc(-c2cccc(-c3cccc(NC(=O)c4cn(C)c(=O)n(C)c4=O)c3C)c2Cl)cc(F)c1CNC(C)(C)CO [Example 2.057]
19,< 0.01,COc1cc(-c2cccc(-c3cccc(NC(=O)c4cn(C)c(=O)n(C)c4=O)c3C)c2Cl)cc(F)c1CN(C)CCO [Example 2.058]

row,IC50 [µM],Structure (SMILES)
1,< 0.01,COc1cc(-c2cccc(-c3cccc(NC(=O)c4cn(C)c(=O)n(C)c4=O)c3C)c2Cl)cc(F)c1CNCC1(C(N)=O)CC1 [Example 2.059]
2,< 0.01,COc1cc(-c2cccc(-c3cccc(NC(=O)c4cn(C)c(=O)n(C)c4=O)c3C)c2Cl)cc(F)c1CN[C@H]1CCC[C@@H]1O [Example 2.060]
3,0.01 to 1,COc1cc(-c2cccc(-c3cccc(NC(=O)c4cn(C)c(=O)n(C)c4=O)c3C)c2Cl)cc(F)c1CN(C)[C@H]1CNC(=O)C1 [Example 2.061]
4,< 0.01,COc1cc(-c2cccc(-c3cccc(NC(=O)c4cn(C)c(=O)n(C)c4=O)c3C)c2Cl)cc(F)c1CN(C)[C@@H]1CCOC[C@@H]1O [Example 2.062]
5,< 0.01,COc1cc(-c2cccc(-c3cccc(NC(=O)c4cn(C)c(=O)n(C)c4=O)c3Cl)c2Cl)cc(F)c1CNC(C)C [Example 2.063]
6,< 0.01,COc1cc(-c2cccc(-c3cccc(NC(=O)c4cn(C)c(=O)n(C)c4=O)c3C)c2Cl)cc(F)c1CNC(C)C [Example 2.064]
7,< 0.01,COc1cc(-c2cccc(-c3cccc(NC(=O)c4cn(C)c(=O)n(C)c4=O)c3Cl)c2Cl)cc(F)c1CN[C@@H]1CCOC1 [Example 2.065]
8,< 0.01,COc1cc(-c2cccc(-c3cccc(NC(=O)c4cn(C)c(=O)n(C)c4=O)c3Cl)c2Cl)cc(F)c1CN[C@H]1CCOC1 [Example 2.066]
9,< 0.01,COc1cc(-c2cccc(-c3cccc(NC(=O)c4cn(C)c(=O)n(C)c4=O)c3C)c2Cl)cc(F)c1CN[C@@H]1CCCOC1 [Example 2.067]
10,< 0.01,COc1cc(-c2cccc(-c3cccc(NC(=O)c4cn(C)c(=O)n(C)c4=O)c3Cl)c2Cl)cc(F)c1CN(C)[C@@H]1CNC(=O)C1 [Example 2.068]
11,< 0.01,COc1cc(-c2cccc(-c3cccc(NC(=O)c4cn(C)c(=O)n(C)c4=O)c3C)c2Cl)cc(F)c1CN(C)C1CCOCC1 [Example 2.069]
12,< 0.01,COc1cc(-c2cccc(-c3cccc(NC(=O)c4cn(C)c(=O)n(C)c4=O)c3Cl)c2Cl)cc(F)c1CN[C@@H]1COCC[C@H]1O [Example 2.070]
13,< 0.01,COc1cc(-c2cccc(-c3cccc(NC(=O)c4cn(C)c(=O)n(C)c4=O)c3Cl)c2Cl)cc(F)c1CN[C@H]1COCC[C@@H]1O [Example 2.071]
14,< 0.01,COc1cc(-c2cccc(-c3cccc(NC(=O)c4cn(C)c(=O)n(C)c4=O)c3C)c2Cl)cc(F)c1CN(C)[C@@H]1CNC(=O)C1 [Example 2.072]
15,< 0.01,COc1cc(-c2cccc(-c3cccc(NC(=O)c4cn(C)c(=O)n(C)c4=O)c3Cl)c2Cl)cc(F)c1CN[C@@H]1COC[C@@H]1O [Example 2.073]
16,< 0.01,COc1cc(-c2cccc(-c3cccc(NC(=O)c4cn(C)c(=O)n(C)c4=O)c3Cl)c2Cl)cc(F)c1CN[C@H]1COC[C@H]1O [Example 2.074]
17,< 0.01,COc1cc(-c2cccc(-c3cccc(NC(=O)c4cn(C)c(=O)n(C)c4=O)c3Cl)c2Cl)cc(F)c1CN[C@@H]1COC[C@H]1O [Example 2.075]
18,< 0.01,COc1cc(-c2cccc(-c3cccc(NC(=O)c4cn(C)c(=O)n(C)c4=O)c3Cl)c2Cl)cc(F)c1CN[C@H]1COC[C@@H]1O [Example 2.076]
19,< 0.01,COc1cc(-c2cccc(-c3cccc(NC(=O)c4cn(C)c(=O)n(C)c4=O)c3Cl)c2C)cc(F)c1CN[C@H]1CCOC[C@@H]1O [Example 2.077]
